Our source for the IC50, Papp and EC50 values is patent US10294229B2, “Heteroaryl substituted aminopyridine compounds” (BRISTOL-MYERS SQUIBB COMPANY, priority 2015, dated 2019).

In one data set the target is IRAK4 (Homo sapiens (Human), UniProt Q9NWZ3). Briefly: IRAK4 Inhibition Assay. The format is biochemical. To be noted: ATP 500 μM; IRAK4 0.6 nM. The gist of the method:
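Mobility-shift readout: phosphorylated and unphosphorylated fluorescent peptide (1.5 μM) resolved by electrophoresis after a 60 min room-temperature reaction stopped with EDTA. Reaction holds 0.6 nM IRAK4, 500 μM ATP and 1.6% DMSO in HEPES pH 7.2/MgCl2/Brij 35/DTT buffer; percent inhibition set against vehicle and no-enzyme controls.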

Data set [1] in a line: Caco-2 Permeability Assay. Type of data set: in vitro ADME. The settings on record: human, Caco-2, test compound 3 μM. The gist of the method:
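Bidirectional permeability measured over 2 h at 37° C, compound dosed at 3 μM in the donor compartment (apical for absorptive, basolateral for secretive) with plain buffer as receiver.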
(Passage across Caco-2 layers is used to estimate intestinal permeability.)

The subject of data set [2] is Human whole blood stimulated with a TLR2 agonist (lipoteichoic acid), IL-6 levels. Briefly: IRAK4 Whole Blood Assay. Type of data set: cell-based. To be noted: lipoteichoic acid 10 μg/mL. The gist of the method:
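ACD-A-anticoagulated human whole blood was preincubated with compounds for 60 min at 37 °C under 5% CO2. It was then stimulated with 10 μg/mL lipoteichoic acid (final) in RPMI for 5 h. IL-6 in plasma supernatants was measured by flow cytometry bead assay.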

Chain of IRAK4 (Q9NWZ3 whole entry, species assumed): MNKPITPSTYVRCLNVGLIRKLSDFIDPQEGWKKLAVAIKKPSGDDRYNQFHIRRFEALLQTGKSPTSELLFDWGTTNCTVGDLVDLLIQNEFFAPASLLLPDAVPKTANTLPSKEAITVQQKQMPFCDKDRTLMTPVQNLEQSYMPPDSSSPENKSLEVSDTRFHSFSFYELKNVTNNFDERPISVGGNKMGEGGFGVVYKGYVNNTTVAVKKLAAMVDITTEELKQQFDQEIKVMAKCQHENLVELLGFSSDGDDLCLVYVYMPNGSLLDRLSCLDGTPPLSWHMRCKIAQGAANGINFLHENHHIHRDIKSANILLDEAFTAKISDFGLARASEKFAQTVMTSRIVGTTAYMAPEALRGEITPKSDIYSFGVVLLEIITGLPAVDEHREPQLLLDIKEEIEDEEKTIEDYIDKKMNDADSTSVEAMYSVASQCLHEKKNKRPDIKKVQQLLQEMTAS

Take `CC(F)Cc1cn(-c2cnc(-n3ncc4cc(C#N)cnc43)cc2NC2CC2)nn1` (stereo not drawn) [Example 354, 1-(4-(cyclopropylamino)-5-(4-(2-fluoropropyl)-1H-1,2,3-triazol-1-yl)pyridin-2-yl)-1H-pyrazolo[3,4-b]pyridine-5-carbonitrile]: the IC50 on IRAK4 was found to be 14 nM. Besides, the Papp at 2 h, 3 µM in data set [1] is 36 ×10⁻⁶ cm/s. This molecule gave an EC50 in data set [2] of 150 nM.
As for `CC(C)Nc1cc(-n2ncc3cc(C#N)cnc32)ncc1-n1cc(C2CCOCC2)nn1` [Example 355, 1-(4-(isopropylamino)-5-(4-(tetrahydro-2H-pyran-4-yl)-1H-1,2,3-triazol-1-yl)pyridin-2-yl)-1H-pyrazolo[3,4-b]pyridine-5-carbonitrile], the IC50 at IRAK4 is 7 nM. Further, the Papp at 2 h, 3 µM in data set [1] is 48.7 ×10⁻⁶ cm/s. Also, the EC50 in data set [2] (Homo sapiens) was 240 nM.
As to `CC(C)Nc1cc(-n2ncc3cc(C#N)cnc32)ncc1-n1cc(C2CCN(S(C)(=O)=O)CC2)nn1` [Example 361, 1-(4-(isopropylamino)-5-(4-(1-(methylsulfonyl)piperidin-4-yl)-1H-1,2,3-triazol-1-yl)pyridin-2-yl)-1H-pyrazolo[3,4-b]pyridine-5-carbonitrile], the IC50 on IRAK4 came out at 7 nM. Further, the Papp at 2 h, 3 µM in data set [1] is 5.6 ×10⁻⁶ cm/s. Also, the EC50 in data set [2] (Homo sapiens) was 360 nM.
Take `CC(C)(F)CCc1cn(-c2cnc(-n3ncc4cc(C#N)cnc43)cc2NC2COC2)nn1` [Example 363, 1-(5-(4-(3-fluoro-3-methylbutyl)-1H-1,2,3-triazol-1-yl)-4-(oxetan-3-ylamino)pyridin-2-yl)-1H-pyrazolo[3,4-b]pyridine-5-carbonitrile]: the IC50 at IRAK4 worked out at 6 nM. This molecule gave a Papp at 2 h, 3 µM in data set [1] of 15.6 ×10⁻⁶ cm/s. Also, the response in data set [2] (Homo sapiens) was half-maximal at 330 nM (EC50).
The like results for `CC(C)(O)CCc1cn(-c2cnc(-n3ncc4cc(C#N)cnc43)cc2NC2CCC(F)C2)nn1` (stereo not drawn) [Example 364, 1-(4-((3-fluorocyclopentyl)amino)-5-(4-(3-hydroxy-3-methylbutyl)-1H-1,2,3-triazol-1-yl)pyridin-2-yl)-1H-pyrazolo[3,4-b]pyridine-5-carbonitrile] were, in that order, 3 nM, 4.5 ×10⁻⁶ cm/s and 250 nM.
For the molecule `CC(C)(O)CCc1cn(-c2cnc(-n3ncc4cc(C#N)cnc43)cc2NC2CCOC2)nn1` [Example 365, (S)-1-(5-(4-(3-hydroxy-3-methylbutyl)-1H-1,2,3-triazol-1-yl)-4-((tetrahydrofuran-3-yl)amino)pyridin-2-yl)-1H-pyrazolo[3,4-b]pyridine-5-carbonitrile], the IC50 at IRAK4 came to 3 nM. Also, in data set [1], the Papp at 2 h, 3 µM was < 1.5 ×10⁻⁶ cm/s. A half-maximal response in data set [2] (Homo sapiens) (EC50) required 410 nM.
`CC(C)(O)CCc1cn(-c2cnc(-n3ncc4cc(C#N)cnc43)cc2NC2CC(F)(F)C2)nn1` [Example 367, 1-(4-((3,3-difluorocyclobutyl)amino)-5-(4-(3-hydroxy-3-methylbutyl)-1H-1,2,3-triazol-1-yl)pyridin-2-yl)-1H-pyrazolo[3,4-b]pyridine-5-carbonitrile]: at IRAK4, the IC50 came out at 9 nM. Besides, the Papp at 2 h, 3 µM in data set [1] turned out to be 3.6 ×10⁻⁶ cm/s. The molecule further showed an EC50 in data set [2] (Homo sapiens) of 230 nM.
Taken in the same sequence, the figures for `CC(C)(O)CCc1cn(-c2cnc(-n3ncc4cc(C#N)cnc43)cc2N[C@H]2CC[C@H](F)C2)nn1` [Example 368, 1-(4-(((1S,3S)-3-fluorocyclopentyl)amino)-5-(4-(3-hydroxy-3-methylbutyl)-1H-1,2,3-triazol-1-yl)pyridin-2-yl)-1H-pyrazolo[3,4-b]pyridine-5-carbonitrile] were 3 nM, 3.2 ×10⁻⁶ cm/s and 180 nM.
The like results for `CCNc1cc(-n2ncc3cc(C#N)cnc32)ncc1-n1cc(CCC(C)(C)O)nn1` [Example 369, 1-(4-(ethylamino)-5-(4-(3-hydroxy-3-methylbutyl)-1H-1,2,3-triazol-1-yl)pyridin-2-yl)-1H-pyrazolo[3,4-b]pyridine-5-carbonitrile] were, in that order, 7 nM, 6.7 ×10⁻⁶ cm/s and 270 nM.
The like results for `CC(C)(O)CCc1cn(-c2cnc(-n3ncc4cc(C#N)cnc43)cc2NCCCF)nn1` [Example 370, 1-(4-((3-fluoropropyl)amino)-5-(4-(3-hydroxy-3-methylbutyl)-1H-1,2,3-triazol-1-yl)pyridin-2-yl)-1H-pyrazolo[3,4-b]pyridine-5-carbonitrile] were, in that order, 9 nM, 2.5 ×10⁻⁶ cm/s and 280 nM.
Consider `CC(C)Nc1cc(-n2ncc3cc(C#N)c(N)nc32)ncc1-n1cc(CCC(C)(C)O)nn1` [Example 371, 6-amino-1-(5-(4-(3-hydroxy-3-methylbutyl)-1H-1,2,3-triazol-1-yl)-4-(isopropylamino)pyridin-2-yl)-1H-pyrazolo[3,4-b]pyridine-5-carbonitrile], for which the IC50 on IRAK4 amounted to 1 nM. For the same molecule, the Papp at 2 h, 3 µM in data set [1] was < 1.5 ×10⁻⁶ cm/s. This molecule had an EC50 in data set [2] (Homo sapiens) of 130 nM.
The like results for `CC(C)(O)CCc1cn(-c2cnc(-n3ncc4cc(C#N)cnc43)cc2N[C@H]2CC[C@@H](F)C2)nn1` [Example 372, 1-(4-(((1S,3R)-3-fluorocyclopentyl)amino)-5-(4-(3-hydroxy-3-methylbutyl)-1H-1,2,3-triazol-1-yl)pyridin-2-yl)-1H-pyrazolo[3,4-b]pyridine-5-carbonitrile] were, in that order, 4 nM, 3.6 ×10⁻⁶ cm/s and 330 nM.
The like results for `CC(C)(F)CCc1cn(-c2cnc(-n3ncc4cc(C#N)cnc43)cc2N[C@@H]2CCOC2)nn1` [Example 373, (R)-1-(5-(4-(3-fluoro-3-methylbutyl)-1H-1,2,3-triazol-1-yl)-4-((tetrahydrofuran-3-yl)amino)pyridin-2-yl)-1H-pyrazolo[3,4-b]pyridine-5-carbonitrile] were, in that order, 4 nM, 27.7 ×10⁻⁶ cm/s and 300 nM.
The like results for `CC(C)(O)CCc1cn(-c2cnc(-n3ncc4cc(C#N)cnc43)cc2N[C@@H]2CCC[C@@H]2F)nn1` [Example 375, 1-(4-(((1R,2S)-2-fluorocyclopentyl)amino)-5-(4-(3-hydroxy-3-methylbutyl)-1H-1,2,3-triazol-1-yl)pyridin-2-yl)-1H-pyrazolo[3,4-b]pyridine-5-carbonitrile] were, in that order, 1 nM, 6.8 ×10⁻⁶ cm/s and 300 nM.
Take `CC(C)(O)CCc1cn(-c2cnc(-n3ncc4cc(C#N)cnc43)cc2NC(CF)CF)nn1` [Example 377, 1-(4-((1,3-difluoropropan-2-yl)amino)-5-(4-(3-hydroxy-3-methylbutyl)-1H-1,2,3-triazol-1-yl)pyridin-2-yl)-1H-pyrazolo[3,4-b]pyridine-5-carbonitrile]: the IC50 at IRAK4 amounted to 7 nM. Besides, the Papp at 2 h, 3 µM in data set [1] was < 1.5 ×10⁻⁶ cm/s. In data set [2] (Homo sapiens), this molecule registered an EC50 of 240 nM.
The like results for `CC(C)Nc1cc(-n2ncc3cc(C#N)cnc32)ncc1-n1cc(CCC(C)(C)OC(=O)CN)nn1` [Example 378, 4-(1-(6-(5-cyano-1H-pyrazolo[3,4-b]pyridin-1-yl)-4-(isopropylamino)pyridin-3-yl)-1H-1,2,3-triazol-4-yl)-2-methylbutan-2-yl glycinate] were, in that order, 2 nM, < 1.5 ×10⁻⁶ cm/s and 160 nM.
Taken in the same sequence, the figures for `CC(C)(O)CCc1cn(-c2cnc(-n3ncc4cc(C#N)cnc43)cc2NC2COCC2F)nn1` (stereo not drawn) [Example 379, 1-(4-((4-fluorotetrahydrofuran-3-yl)amino)-5-(4-(3-hydroxy-3-methylbutyl)-1H-1,2,3-triazol-1-yl)pyridin-2-yl)-1H-pyrazolo [3,4-b]pyridine-5-carbonitrile] were 5 nM, < 1.5 ×10⁻⁶ cm/s and 140 nM.
The like results for `CC(C)Nc1cc(-n2ncc3cc(C#N)cnc32)ncc1-n1cc(CCC(C)(C)OC(=O)C2CC2)nn1` [Example 382, 4-(1-(6-(5-cyano-1H-pyrazolo[3,4-b]pyridin-1-yl)-4-(isopropylamino)pyridin-3-yl)-1H-1,2,3-triazol-4-yl)-2-methylbutan-2-yl cyclopropanecarboxylate] were, in that order, 2 nM, 24.8 ×10⁻⁶ cm/s and 460 nM.
`CC(C)Nc1cc(-n2ncc3cc(C#N)cnc32)ncc1-n1cc(CCC(C)(C)OC(=O)CN(C)C)nn1` [Example 384, 4-(1-(6-(5-cyano-1H-pyrazolo[3,4-b]pyridin-1-yl)-4-(isopropylamino)pyridin-3-yl)-1H-1,2,3-triazol-4-yl)-2-methylbutan-2-yl dimethylglycinate]: the IC50 on IRAK4 is 2 nM. The Papp at 2 h, 3 µM in data set [1] is 13.1 ×10⁻⁶ cm/s. The EC50 in data set [2] (Homo sapiens) was determined as 250 nM.
The like results for `CC(C)Nc1cc(-n2ncc3cc(C#N)cnc32)ncc1-n1cc(C2CCN(C(=O)C(F)(F)F)CC2)nn1` [Example 386, 1-(4-(isopropylamino)-5-(4-(1-(2,2,2-trifluoroacetyl)piperidin-4-yl)-1H-1,2,3-triazol-1-yl)pyridin-2-yl)-1H-pyrazolo[3,4-b]pyridine-5-carbonitrile] were, in that order, 4 nM, 24.8 ×10⁻⁶ cm/s and 200 nM.
On to `CC(C)Nc1cc(-n2ncc3cc(C#N)cnc32)ncc1-n1cc(CC[C@](C)(O)CO)nn1` [Example 387, (S)-1-(5-(4-(3,4-dihydroxy-3-methylbutyl)-1H-1,2,3-triazol-1-yl)-4-(isopropylamino)pyridin-2-yl)-1H-pyrazolo[3,4-b]pyridine-5-carbonitrile], for which the IC50 on IRAK4 was determined as 8 nM. Further, the Papp at 2 h, 3 µM in data set [1] was < 1.5 ×10⁻⁶ cm/s. Further, the EC50 in data set [2] (Homo sapiens) turned out to be 240 nM.

The term IC50 denotes the concentration needed to halve the response being measured. A word on the Papp: it is a coefficient for how fast a substance crosses the barrier. A higher Papp goes with fast passage. As a reminder, the EC50 is the concentration needed to bring the measured effect to its halfway point.
